Measurements: patent publication US10662214B2, “Compound of 4′-thionucleoside, as well as preparation method therefor, pharmaceutical composition thereof and application thereof” (Sichuan Kelun-Biotech Biopharmaceutical Co., Ltd., priority 2015, dated 2020)
Entries after “also recorded” stand apart in the source; their conditions may differ.

Assays:
[1] = system: colorectal cancer cell HCT-116; experiment: CCK-8 inhibition of proliferation, HCT-116; format: cell-based, human
Method: The tumor cell lines employed in the present experiment were gastric cancer cell NCI-N87 (obtained from Guangzhou Jennio Biological Technology Co., Ltd.), colorectal cancer cell HCT-116 (obtained from Chengdu Center for Safety Evaluation of Drugs), colorectal cancer cell HCT-15 and pancreatic cancer cell BxPC-3 (both obtained from ATCC, US).
Each of the cell lines is cultured in a corresponding culture medium (RPMI-1640, IMDM and L-15 culture medium (manufacturer: Gibco)) supplemented with 10% heat inactivated Fetal Bovine Serum (manufacturer: Sigma), in an incubator at 37° C. and 5% CO2.
For each type of tumor cells, a blank group, a vehicle group (containing 1‰ DMSO) and 8 groups with a test compound at concentrations of 5 nM, 10 nM, 50 nM, 100 nM, 500 nM, 1000 nM, 5000 nM, and 10000 nM (with each concentration in triplicate) were set. […]
The experiment was performed according to a CCK-8 method as described below. […] OD values at two wavelengths (Detection wavelength: 450 nm, and reference wavelength: 650 nm) were determined on a multifunctional fully-automatic microplate reader.
The inhibitory rate of tumor cell growth was calculated according to the following formula: Inhibitory rate=[(ODvehicle−ODblank)−(ODdrug−ODblank)]/(ODvehicle−ODblank)*100%
Based on the inhibitory rate, a concentration-inhibitory rate curve was fit using GraphPad prism 5.0 software, and IC50 was calculated.

[2] = Intravenous toxicity test in mice (administration for 7 days); format: in vivo
Source text: This test was used to investigate the toxic reactions after intravenous administration of compound C8 to normal KM mice for 7 consecutive days.
KM mice passing the quarantine control were randomized into 4 groups (3 mice/gender/group). The test compound and vehicle control were formulated according to Experimental example 2. The mortality, appearance, behavior, mental status, secretion and excreta etc. of the animals were observed every day for 7 consecutive days after the administration, and the animals were anatomized on day 8.

[3] = 115.38 μmol/kg i.v., 7 days, anatomy on day 8

SMILES: CC(C)OC(=O)[C@H](C)N[P@](=O)(OC[C@H]1S[C@@H](n2ccc(N)nc2=O)[C@@H](F)[C@@H]1O)Oc1ccccc1 [Compound C8, (S)-isopropyl 2-(((S)-(((2R,3S,4S,5R)-5-(4-amino-2-oxopyrimidin-1(2H)-yl)-4-fluoro-3-hydroxytetrahydrothiophen-2-yl)methoxy)(phenoxy)phosphoryl)amino)propanoate]
- inhibitory effect on colorectal cancer cell HCT-116 (in words) ([1]; FIG. 1: 5-10000 nM): potent inhibitory effects; also recorded: excellent inhibitory effects
- IC50 ([1]; Homo sapiens, HCT-116, CCK-8, 72 h incubation): 485 nM
- body weight increase on day 8, female mice ([2]; 115.38 μmol/kg i.v., 7 days): 13.1%
- body weight increase on day 8, male mice ([2]; 115.38 μmol/kg i.v., 7 days): 26.7%
- leukocyte count decrease vs vehicle group, female [2, 3]: 45%
- leukocyte count decrease vs vehicle group, male [2, 3]: 49%
- platelet count decrease vs vehicle group, female [2, 3]: 43%
- platelet count decrease vs vehicle group, male [2, 3]: 39%
- symptoms observed on day 8 ([2]; compound C8 60.9 mg/kg (115.38 μmol/kg) i.v., 7 consecutive days): no relevant abnormalities were observed
